Measurements published in US11845984B2, “Methods for obtaining and correcting biological sequence information” (CYGNUS BIOSCIENCES (BEIJING) CO., LTD., priority 2015, dated 2023).

Assay: Spectral (optical) properties of fluorophores
Format: physicochemical
Experimental: Although Me-FAM has similar maximum emission wavelength as TG, the extinction coefficient and quantum yield of Me-FAM are much lower (FIG. 8). At the same time, the broad emission spectrum of Me-FAM greatly overlapped with other fluorophores like Me-HCF, which makes it inapplicable for multi-color sequencing application in future. Instead, the strong fluorescence and narrower spectrum of TG will tackle the problem more easily.
First, the spectrums of TG-dA4P were measured at room temperature. For emission measurement: set excitation wavelength at 460 nm, scan 480 to 600 nm for emission; for absorption measurement: scan 310 to 550 nm. Then CIP and PDE were added and spectrum was recorded sequentially at the same condition.

Cc1ccccc1-c1c2ccc(=O)cc-2oc2cc(O)ccc12 [TG, Tokyo Green]
Emission max: 513 nm
Excitation max: 490 nm
Extinction coefficient: 8 × 10^4
Quantum Yield: 82%
fluorescence quantum yield (at 490 nm): 0.82
